From US4505929A, “Sulfur-substituted diphenyl ethers having antiviral activity” (The Dow Chemical Company, priority 1982, dated 1985)
In brackets after ≈: the same amount, converted by molar mass.

Tests used:
Type in all cases: cell-based
[1] = Cytotoxicity to HeLa cells in tissue culture testing; details: human, concentration found to be toxic to the cell, observed at 48 and 72 hours, read-out: Cytotoxicity
Experimental: (§1) Monolayered HeLa cells in 16 millimeter (mm) tissue culture dishes were treated with 1 ml of culture medium (Eagles medium supplemented with fetal calf serum) containing subject compound at an appropriate concentration or containing no compound at all. Culture media such as those described herein are more fully described in standard texts, as for example, Kuchler's Biochemical Methods in Cell Culture and Virology, Dowden, Hutchinson and Ross, Inc., Stroudsberg, PA (1977). Following treatment, cells were challenged with 0.05 ml of rhinovirus type 1A (RV-1A), rhinovirus type 2 (RV-2) or Coxsackie A21 virus (Cox A21) in culture medium. Some of the compounds were also tested against rhinovirus type 5 (RV-5), rhinovirus type 8 (RV-8) or rhinovirus type 64 (RV-64). Cell controls received no viruses.
^x Cytotoxicity figures represent the concentration of the compound,
micrograms/milliliter (μg/ml) found to be toxic to the cell.
means "approximately "; "<<" "considerably less than " and "G.I." means

[2] = system: rhinovirus type 1A (RV-1A); assay: Tissue culture antiviral test (HeLa cells), RV-1A; details: Enterovirus, 48 and 72 hours post-treatment, read-out: Lowest concentration necessary to cause a 50 percent reduction in cytopathic effect, RV-1A
Experimental: as §1
(§2) ^xx Lowest concentration of the compound (μg/ml) necessary to caus
(§3) a 50 percent reduction in cytopathic effect.

[3] = system: rhinovirus type 2 (RV-2); assay: Tissue culture antiviral test (HeLa cells), RV-2; details: Enterovirus, 48 and 72 hours post-treatment, read-out: Lowest concentration necessary to cause a 50 percent reduction in cytopathic effect, RV-2
Experimental: as §1, §2, §3

[4] = system: Coxsackie A21 virus (Cox A21); assay: Tissue culture antiviral test (HeLa cells), Cox A21; details: 48 and 72 hours post-treatment, read-out: Lowest concentration necessary to cause a 50 percent reduction in cytopathic effect, Cox A21
Experimental: as §1, §2, §3

[5] = system: rhinovirus type 5 (RV-5); assay: Tissue culture antiviral test (HeLa cells), RV-5; details: Enterovirus, 48 and 72 hours post-treatment, read-out: Lowest concentration necessary to cause a 50 percent reduction in cytopathic effect, RV-5
Experimental: as §1, §2, §3

[6] = system: rhinovirus type 8 (RV-8); assay: Tissue culture antiviral test (HeLa cells), RV-8; details: Enterovirus, 48 and 72 hours post-treatment, read-out: Lowest concentration necessary to cause a 50 percent reduction in cytopathic effect, RV-8
Experimental: as §1, §2, §3

[7] = system: rhinovirus type 64 (RV-64); assay: Tissue culture antiviral test (HeLa cells), RV-64; details: Enterovirus, 48 and 72 hours post-treatment, read-out: Lowest concentration necessary to cause a 50 percent reduction in cytopathic effect, RV-64
Experimental: as §1, §2, §3

| Compound | EC50 [2] [µg/mL] | EC50 [3] [µg/mL] | EC50 [4] [µg/mL] | EC50 [5] [µg/mL] | EC50 [6] [µg/mL] | EC50 [7] [µg/mL] | MCC [1] [µg/mL] |
| --- | --- | --- | --- | --- | --- | --- | --- |
| COc1ccc(Oc2ccc(S(C)(=O)=O)cc2)cc1 [Example 18, 4-(4-(Methylsulfonyl)phenoxy)-1-methoxybenzene] | 6.25 (≈ 22.5 µM) | 12.5 (≈ 44.9 µM) | 25 (≈ 89.8 µM) |  |  | 12.5 (≈ 44.9 µM) | > 50 |
| CS(=O)(=O)c1ccc(Oc2ccc(C(=O)c3ccccc3)cc2)cc1 [Example 4, (4-(4-(Methylsulfonyl)phenoxy)phenyl)phenylmethanone] |  | 50 (≈ 142 µM) | < 6.25 |  |  | 100 (≈ 284 µM) | > 100 |
| CC(=O)c1ccc(Oc2ccc(S(C)(=O)=O)cc2)cc1 [Example 3, 1-(4-(4-(Methylsulfonyl)phenoxy)phenyl)ethanone] | 25 (≈ 86.1 µM) | 12.5 (≈ 43.1 µM) | < 6.25 | 25 (≈ 86.1 µM) | 25 (≈ 86.1 µM) | < 6.25 | 50 |
| CS(=O)(=O)c1ccc(Oc2ccc(Br)cc2)cc1 [Example 9, 1-Bromo-4-(4-(methylsulfonyl)phenoxy)benzene] | < 3.12 | < 3.12 | < 3.12 | 12.5 (≈ 38.2 µM) | 12.5 (≈ 38.2 µM) |  | 12.5 |
| Cc1cc(Oc2ccc(Cl)c(Cl)c2)ccc1S(C)(=O)=O [Example 19, 4-(3-Methyl-4-(methylsulfonyl)phenoxy)-1,2-dichlorobenzene] | < 3.12 | 6.25 (≈ 18.9 µM) |  | 12.5 (≈ 37.7 µM) |  | < 3.12 | > 50 |
| CS(=O)(=O)c1ccc(Oc2ccc(C#N)cc2)cc1 [Example 8, 4-(4-(Methylsulfonyl)phenoxy)benzonitrile] | 12.5 (≈ 45.7 µM) | 12.5 (≈ 45.7 µM) | < 6.25 | 12.5 (≈ 45.7 µM) | 25 (≈ 91.5 µM) | 12.5 (≈ 45.7 µM) | 50 |
| CN(C)S(=O)(=O)c1ccc(Oc2ccc(S(=O)(=O)c3ccccc3)cc2)cc1 [Example 11, N,N-Dimethyl-4-(4-(phenylsulfonyl)phenoxy)benzenesulfonamide] | 0.625 (≈ 1.5 µM) | 0.625 (≈ 1.5 µM) | 0.625 (≈ 1.5 µM) |  |  |  | 1.25 |
| C[S+]([O-])c1ccc(Oc2ccc(Cl)c(Cl)c2)cc1 (stereo not shown) [Example 6, 1,2-Dichloro-4-(4-(methylsulfinyl)phenoxy)benzene] | < 0.31 | < 0.31 |  |  |  | < 0.31 | 12.5 |
| C[S+]([O-])c1ccc(Oc2ccc(C#N)cc2)cc1 (stereo not shown) [Example 7, 4-(4-(Methylsulfinyl)phenoxy)benzonitrile] | 3.12 (≈ 12.1 µM) | 3.12 (≈ 12.1 µM) | 3.12 (≈ 12.1 µM) |  |  |  | 25 |

More lines, main results first:

| EC50 [2] [µg/mL] | EC50 [3] [µg/mL] | EC50 [4] [µg/mL] | EC50 [5] [µg/mL] | EC50 [6] [µg/mL] | EC50 [7] [µg/mL] | Compound | MCC [1] [µg/mL] |
| --- | --- | --- | --- | --- | --- | --- | --- |
| 0.312 (≈ 0.714 µM) | 0.3 (≈ 0.686 µM) | ≤ 0.3 | 0.625 (≈ 1.43 µM) | ≤ 0.312 | 0.625 (≈ 1.43 µM) | CCN(CC)S(=O)(=O)c1ccc(Oc2ccc(S(=O)(=O)C(F)(F)F)cc2)cc1 [Example 26, N,N-Diethyl-4-(4-((trifluoromethyl)sulfonyl)phenoxy)benzenesulfonamide] | 0.625 |
| 2.5 (≈ 8.24 µM) | 5 (≈ 16.5 µM) | 2.5 (≈ 8.24 µM) | 5 (≈ 16.5 µM) | 5 (≈ 16.5 µM) | 10 (≈ 33 µM) | CS(=O)(=O)c1ccc(Oc2ccc(OCC#N)cc2)cc1 [Example 23, (4-(4-(Methylsulfonyl)phenoxy)phenoxy)acetonitrile] | 10 |
| 6.25 (≈ 23.9 µM) | ≤ 6.25 | ≤ 6.25 |  |  |  | CSc1ccc(Oc2ccc([N+](=O)[O-])cc2)cc1 [Example 27, 1-(Methylthio)-4-(4-nitrophenoxy)benzene] | 12.5 |
| 2.5 (≈ 6.29 µM) | 1.25 (≈ 3.15 µM) | 0.625 (≈ 1.57 µM) | ~1.25 (≈ 3.15 µM) |  |  | CS(=O)(=O)c1ccc(Oc2ccc(OC(F)(F)C(Cl)Cl)cc2)cc1 [Example 22, 1-(2,2-Dichloro-1,1-difluoroethoxy)-4-(4-(methylsulfonyl)phenoxy)benzene] | 2.5 |
| 1.25 (≈ 3.44 µM) |  |  | 2.5 (≈ 6.88 µM) |  |  | CCN(CC)CCOc1ccc(Oc2ccc(S(C)(=O)=O)cc2)cc1 [Example 24] | ≤ 20 |
| 2.5 (≈ 7.39 µM) | 1.25 (≈ 3.69 µM) | 2.5 (≈ 7.39 µM) | 5 (≈ 14.8 µM) | 5 (≈ 14.8 µM) | 2.5 (≈ 7.39 µM) | CS(=O)(=O)c1ccc(Oc2ccc(Cc3ccccc3)cc2)cc1 [Example 20, 1-(4-(Methylsulfonyl)phenoxy)-4-(phenylmethyl)benzene] | 5 |
